Experimental data: patent publication US7803760B2, “Methods of inducing ovulation” (Merck Serono SA, priority 2000, dated 2010)

Tests used:
[1] = system: rat ovarian granulosa cells; assay: Rat ovarian granulosa cell cAMP levels in vitro (cAMP RIA of conditioned media); assay type: cell-based; conditions: 25 micromolar compound with sub-effective (0.1 pM) gonadotropin, 48 hrs, FIG. 2
Method: Ovaries were removed from immature 25 day old, hypophysectomized, diethylstilbesterol treated Sprague-Dawley rats. The ovaries were repeatedly punctured with 27 gauge needles to liberate granulosa cells from the follicles. Cells were washed and re-suspended in McCoys SA media+0.1% BSA+2 μM androstenedione. Viable cells in number of 100,000 were loaded into 6-well tissue culture dishes in a 1.0 ml volume (with Compound 1 and Compound 2 at a concentration of 25 micromolar, either alone or in conjunction with a low, 0.1 pM dose of gonadotropin). Plates were incubated in a 37° C. incubator, 100% humidity, 5.0% CO2 for 48 hrs. Conditioned media were assayed in a cAMP specific radioimmunoassay (RIA). Results are expressed as mean plus or minus standard deviations.

immature female rats [2] = assay: Follicle maturation in vivo: co-administration with sub-optimal FSH, then ovulatory hCG, oocytes in oviduct counted; parameters: species or system rat; conditions: FIG. 3
Method: Mature ovarian follicles generated in immature female rats by treatment with a sub-optimal dose of FSH (1.08 IU/rat/injection; bid×3 days) with and without co-administration of Compound 1 (0.1, 1, 10, and 50 mg/kg/injection: bid×3 days). […] The PDE inhibitors were given in conjunction with sub-optimal doses of FSH.
All injections were subcutaneously administered. […] Results are expressed as mean plus or minus standard deviations. […] As also noted in FIG. 3, a PDE inhibitor (Compound 1) inhibited (rather than stimulated) both ovulation administered at 50 mg/kg.

immature female rats [3] = assay: In vivo ovulation model: FSH-matured follicles in immature rats, oocytes in oviduct counted 18 hours after administration; parameters: species or system rat; conditions: FSH pretreated rats
Text: The role of FSH in any ovulation induction regimen is for promoting follicular development and maturation, not ovulation induction.
All injections were subcutaneous. Results are expressed as mean plus or minus standard deviations. […] The effects of Compound 1, a known PDE inhibitor, are shown.
Data represent average number of oocytes in oviducts of all rats in each group and frequency of ovulating rats. […] Results are expressed as mean plus or minus standard deviations.
Data represent average number of oocytes in oviducts of all rats in each group and frequency of ovulating rats. Results are expressed as mean plus or minus standard deviations.
(§1) Following FSH induced follicular maturation (2.16 IU/rat/injection; bid×2 days) Compound 2 was either injected subcutaneously (subcutis) or administered by oral gavage. Ovulation was determined 18 hours after Compound 2 administration by counting oocytes in oviduct. Data represent average number of oocytes in oviducts of all rats in each group and frequency of ovulating rats. Results are expressed as mean plus or minus standard deviations.
as §1, with “days) […] was either” for “days) Compound 2 was either”

immature rats = assay: Ovulation and fertility in FSH/PMSG pretreated immature rats; assay type: in vivo, rat; conditions: single subcutaneous injection, FIG. 10
Method: Follicular maturation was induced in immature rats with FSH (4.33 IU/rat/injection; bid×2 days) and Pregnant Mare's Serum Gonadotropin (PMSG) (1.5 IU/rat/injection; bid X 2 days). […] FSH and PMSG induced rats were then treated with either Compound 2 (12 rats) or vehicle (12 rats) by subcutaneous administration. In one cohort of rats (6 rats per treatment), ovulation was determined 18 hours after Compound 2 or vehicle administration by counting oocytes in oviduct. To assess fertility, another cohort of rats (6 rats per treatment) were individually placed overnight in a cage together with a single adult male rat of proven fertility. The next day, male rats were removed and the females were caged together by group until the day of parturition. The number of live full-term pups observed at the time of parturition was recorded. […] Results for both ovulation and live pups are expressed as mean plus or minus standard deviations.

[4] = single subcutaneous injection co-administered with sub-effective dose of hCG
[5] = subcutaneous, compound alone without hCG
[6] = oral gavage, compound alone without hCG

SMILES	cAMP levels [1]	ovulation (oocytes in oviduct) (immature female rats [2]; 50 mg/kg/injection bid x 3 days s.c. with sub-optimal FSH (1.08 IU), ovulatory hCG 20 IU)	ability of a sub-optimal dose of FSH to prepare follicles to ovulate (immature female rats [2]; increasing doses 0.1, 1, 10, 50 mg/kg/injection bid x 3 days s.c.)	ovulation (oocytes in oviduct) (immature female rats [3]; [4])	ovulation (oocytes in oviduct) (immature female rats [3]; [5])	ovulation (oocytes in oviduct) (immature female rats [3]; [6])	number of live full-term pups at parturition (immature rats; FSH/PMSG pretreated rats mated overnight)	ovulation (oocytes in oviduct) (immature rats; FSH/PMSG pretreated rats, 18 hours)
COc1ccc([C@]2(C#N)CC[C@@H](C(=O)O)CC2)cc1OC1CCCC1 [Compound 1, Cis-4-cyano-4-(3-(cyclopentyloxy)-4-methoxyphenyl)cyclohexane-1-carboxylic acid]	significant increase in cAMP levels	inhibited	failed to enhance	induction of ovulation	induction of ovulation			
Clc1nc2c(N3CCCC3)nc(N3CCNCC3)nc2nc1NCc1ccccc1 [Compound 4, 7-Benzylamino-6-chloro-2-piperazino-4-pyrrolidinopteridine]				induction of ovulation	little or no ovulation			
COc1ccc(C(=O)Nc2c(Cl)cncc2Cl)cc1OC1CCCC1 [Compound 2, 3-(Cyclopentyloxy)-N-(3,5-dichloropyridin-4-yl)-4-methoxybenzamide]	significant increase in cAMP levels				induction of ovulation	induction of ovulation	increased number of live pups	induction of ovulation
CCOc1cc2cc(CO)c(CO)c(-c3ccnc(-n4nc(-c5cccnc5)c5ccccc5c4=O)c3)c2cc1OCC.Cl [Compound 3, 2-(4-(6,7-Diethoxy-2,3-bis(hydroxymethyl)naphthalen-1-yl)pyridin-2-yl)-4-(3-pyridyl)pthalazin-1(2H)-one hydrochloride]					induction of ovulation	induction of ovulation		
